The structures appear in SMILES notation.

T1 sequence (P05121 24-402): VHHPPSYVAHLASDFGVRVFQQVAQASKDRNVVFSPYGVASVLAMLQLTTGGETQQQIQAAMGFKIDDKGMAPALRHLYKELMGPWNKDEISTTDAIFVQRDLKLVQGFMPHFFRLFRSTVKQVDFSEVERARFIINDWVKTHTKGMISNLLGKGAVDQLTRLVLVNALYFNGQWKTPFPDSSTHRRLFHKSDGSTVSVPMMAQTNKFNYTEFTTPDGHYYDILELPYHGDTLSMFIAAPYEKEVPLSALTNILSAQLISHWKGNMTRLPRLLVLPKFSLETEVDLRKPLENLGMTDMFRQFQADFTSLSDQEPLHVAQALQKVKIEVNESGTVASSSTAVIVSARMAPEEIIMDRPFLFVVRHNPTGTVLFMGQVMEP

This assay addresses T1, recombinant human plasminogen activator inhibitor-1 (PAI-1) (Homo sapiens, UniProt P05121).
T1 construct: purchased Molecular Innovations, Royal Oak, Mich
Kind of assay: Screening for PAI-1 inhibition (residual tPA activity, Spectrozyme-tPA chromogenic substrate). Conditions: test compound at 100 Um; pH 6.6 buffer, 140 nM PAI-1, 70 nM tPA. The format is biochemical. An outline of the steps: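 PAI-1 at 140 nM, pH 6.6 buffer, preincubated 1 h at room temperature with compound (1-100 μM final, ≤0.2% DMSO), then 70 nM tPA added for 30 min. Residual tPA activity read by Spectrozyme-tPA absorbance at 405 nm at 0 and 60 min. Inhibition taken as residual tPA activity.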
`O=C(O)CO/N=C/c1ccc(-c2cccc(OCc3cccc(Cl)c3)c2)cc1` [Compound 92, {[((1E)-{3′-[(3-chlorobenzyl)oxy]-1,1′-biphenyl-4-yl}methylidene)amino]oxy}acetic acid]: the inhibition at 100 µM turned out to be 76%. The same measure for `O=C(O)CO/N=C/c1cccc(OCc2cccc(Br)c2)c1OCc1cccc(Br)c1` [Compound 137, {[((1E)-{2,3-bis[(3-bromobenzyl)oxy]phenyl}methylidene)amino]oxy}acetic acid]: 79%; for `O=C(O)CO/N=C/c1cn(Cc2ccccc2)c2ccc(OCc3ccc(Cl)c(Cl)c3)cc12` [Compound 53, {[((1E)-{1-benzyl-5-[(3,4-dichlorobenzyl)oxy]-1H-indol-3-yl}methylidene)amino]oxy}acetic acid]: 76%; for `O=C(O)CO/N=C/c1cccc(-c2cccc(OCc3ccc(Cl)c(Cl)c3)c2)c1` [Compound 68, {[((1E)-{3′-[(3,4-dichlorobenzyl)oxy]-1,1′-biphenyl-3-yl}methylidene)amino]oxy}acetic acid]: 83%.

For the compound `C#CCn1cc(/C=N/OCC(=O)O)c2cc(OCc3cccc(Cl)c3)ccc21` [Compound 38, [({(1E)-[5-[(3-chlorobenzyl)oxy]-1-(2-propynyl)-1H-indol-3-yl]methylidene}amino)oxy]acetic acid], the inhibition at 100 µM amounted to 62%. The same measure for `O=C(O)CO/N=C/c1cccc(C#CCOc2cc(Cl)cc(Cl)c2)c1` [Compound 171, {[((1E)-{3-[3-(3,5-dichlorophenoxy)prop-1-ynyl]phenyl}methylidene)amino]oxy}acetic acid]: 69%; for `Cn1cc(/C=N/OCC(=O)O)c2cc(OCc3cccc(Cl)c3)ccc21` [Compound 39, {[((1E)-{5-[(3-chlorobenzyl)oxy]-1-methyl-1H-indol-3-yl}methylidene)amino]oxy}acetic acid]: 48%; for `O=C(O)CO/N=C/c1cc(OCc2ccc(F)cc2)cc(OCc2ccc(F)cc2)c1` [Compound 143, {[((1E)-{3,5-bis[(4-fluorobenzyl)oxy]phenyl}methylidene)amino]oxy}acetic acid]: 95%.

With `C=CCn1cc(/C=N/OCC(=O)O)c2cc(OCc3cccc(C)c3)ccc21` [Compound 25, {[((1E)-{1-allyl-5-[(3-methylbenzyl)oxy]-1H-indol-3-yl}methylidene)amino]oxy}acetic acid], the inhibition at 100 µM is 68%.

For the compound `O=C(O)CO/N=C/c1ccc(OCc2cccc(C(F)(F)F)c2)c(OCc2cccc(C(F)(F)F)c2)c1` [Compound 119, ({[(1E)-(3,4-bis{[3-(trifluoromethyl)benzyl]oxy}phenyl)methylidene]amino}oxy)acetic acid], the inhibition at 100 µM stood at 93%. On to `C=CCn1cc(/C=N/OCC(=O)O)c2cc(OCc3cccc(Br)c3)ccc21` [Compound 13, {[((1E)-{1-allyl-5-[(3-bromobenzyl)oxy]-1H-indol-3-yl}methylidene)amino]oxy}acetic acid], for which the inhibition at 100 µM stood at 95%. As for `O=C(O)CO/N=C/c1cccc(-c2cccc(OCc3ccccc3Cl)c2)c1` [Compound 67, {[((1E)-{3′-[(2-chlorobenzyl)oxy]-1,1′-biphenyl-3-yl}methylidene)amino]oxy}acetic acid], the inhibition at 100 µM was 87%. In the case of `O=C(O)CO/N=C/c1cccc(-c2cccc(OCc3ccccc3)c2)c1` [Compound 64, [({(1E)-[3′-(benzyloxy)-1,1′-biphenyl-3-yl]methylidene}amino)oxy]acetic acid], the inhibition at 100 µM stood at 92%.

Regarding `C#CCn1cc(/C=N/OCC(=O)O)c2cc(OCc3ccccc3Cl)ccc21` [Compound 48, [({(1E)-[5-[(2-chlorobenzyl)oxy]-1-(2-propynyl)-1H-indol-3-yl]methylidene}amino)oxy]acetic acid], the inhibition at 100 µM worked out at 79%. For `C=CCn1cc(/C=N/OCC(=O)O)c2cc(OCc3ccc4ccccc4c3)ccc21` [Compound 55, [({(1E)-[1-allyl-5-(2-naphthylmethoxy)-1H-indol-3-yl]methylidene}amino)oxy]acetic acid], the inhibition at 100 µM was determined as 81%. As for `Cn1cc(/C=N/OCC(=O)O)c2cc(OCc3ccc(C(C)(C)C)cc3)ccc21` [Compound 34, {[((1E)-{5-[(4-tert-butylbenzyl)oxy]-1-methyl-1H-indol-3-yl}methylidene)amino]oxy}acetic acid], the inhibition at 100 µM came out at 88%. Turning to `O=C(O)CO/N=C/c1ccc(-c2cccc(OCc3c(Cl)cccc3Cl)c2)cc1` [Compound 101, {[((1E)-{3′-[(2,6-dichlorobenzyl)oxy]-1,1′-biphenyl-4-yl}methylidene)amino]oxy}acetic acid], the inhibition at 100 µM was determined as 10%. Consider `CC(C)Cc1ccc(OCC#Cc2cccc(/C=N/OCC(=O)O)c2)cc1` [Compound 173, {[((1E)-{3-[3-(4-isobutylphenoxy)prop-1-ynyl]phenyl}methylidene)amino]oxy}acetic acid], for which the inhibition at 100 µM came out at 56%.

As to `O=C(O)CO/N=C/c1cccc(-c2ccc(OCc3ccc4ccccc4c3)cc2)c1` [Compound 84, [({(1E)-[4′-(2-naphthylmethoxy)-1,1′-biphenyl-3-yl]methylidene}amino)oxy]acetic acid], the inhibition at 100 µM was determined as 30%. Consider `O=C(O)CO/N=C/c1ccc(OCc2ccc(F)c(F)c2)c(OCc2ccc(F)c(F)c2)c1` [Compound 121, {[((1E)-{3,4-bis[(3,4-difluorobenzyl)oxy]phenyl}methylidene)amino]oxy}acetic acid], for which the inhibition at 100 µM came out at 72%. `O=C(O)CO/N=C/c1ccc(C#CCOc2cccc(Cl)c2)cc1` [Compound 166, {[((1E)-{4-[3-(3-chlorophenoxy)prop-1-ynyl]phenyl}methylidene)amino]oxy}acetic acid]: the inhibition at 100 µM amounted to 42%. In the case of `O=C(O)CO/N=C/c1cc(OCc2cccc(Cl)c2)cc(OCc2cccc(Cl)c2)c1` [Compound 142, {[((1E)-{3,5-bis[(3-chlorobenzyl)oxy]phenyl}methylidene)amino]oxy}acetic acid] it was 86%; in that of `CC(C)(C)c1ccc(COc2ccc3c(c2)c(/C=N/OCC(=O)O)cn3Cc2ccccc2)cc1` [Compound 6, {[((1E)-{1-benzyl-5-[(4-tert-butylbenzyl)oxy]-1H-indol-3-yl}methylidene)amino]oxy}acetic acid], 68%. For the compound `O=C(O)CO/N=C/c1cc(OCc2cccc(C(F)(F)F)c2)ccc1OCc1cccc(C(F)(F)F)c1` [Compound 152, ({[(1E)-(2,5-bis{[3-(trifluoromethyl)benzyl]oxy}phenyl)methylidene]amino}oxy)acetic acid], the inhibition at 100 µM worked out at 100%. Regarding `CCn1cc(/C=N/OCC(=O)O)c2cc(OCc3ccc(Br)cc3)ccc21` [Compound 8, {[((1E)-{5-[(4-bromobenzyl)oxy]-1-ethyl-1H-indol-3-yl}methylidene)amino]oxy}acetic acid], the inhibition at 100 µM is 63%. Consider `O=C(O)CO/N=C/c1cn(Cc2ccccc2)c2ccc(OCc3cccc(C(F)(F)F)c3)cc12` [Compound 24, ({[(1E)-(1-benzyl-5-{[3-(trifluoromethyl)benzyl]oxy}-1H-indol-3-yl)methylidene]amino}oxy)acetic acid], for which the inhibition at 100 µM worked out at 79%. For the compound `O=C(O)CO/N=C/c1cc(OCc2ccc(F)c(F)c2)ccc1OCc1ccc(F)c(F)c1` [Compound 161, {[((1E)-{2,5-bis[(3,4-difluorobenzyl)oxy]phenyl}methylidene)amino]oxy}acetic acid], the inhibition at 100 µM worked out at 92%.

`O=C(O)CO/N=C/c1cccc(-c2cccc(OCc3cccc(Br)c3)c2)c1` [Compound 62, {[((1E)-{3′-[(3-bromobenzyl)oxy]-1,1′-biphenyl-3-yl}methylidene)amino]oxy}acetic acid]: the inhibition at 100 µM is 84%. For the compound `O=C(O)CO/N=C/c1ccc(OCc2ccc(C(F)(F)F)cc2)cc1OCc1ccc(C(F)(F)F)cc1` [Compound 124, ({[(1E)-(2,4-bis{[4-(trifluoromethyl)benzyl]oxy}phenyl)methylidene]amino}oxy)acetic acid], the inhibition at 100 µM came out at 95%. With `C=CCn1cc(/C=N/OCC(=O)O)c2cc(OCc3ccc(Cl)c(Cl)c3)ccc21` [Compound 52, {[((1E)-{1-allyl-5-[(3,4-dichlorobenzyl)oxy]-1H-indol-3-yl}methylidene)amino]oxy}acetic acid], the inhibition at 100 µM came out at 72%. For `C=CCn1cc(/C=N/OCC(=O)O)c2cc(OCc3cccc(Cl)c3)ccc21` [Compound 16, {[((1E)-{1-allyl-5-[(3-chlorobenzyl)oxy]-1H-indol-3-yl}methylidene)amino]oxy}acetic acid], the inhibition at 100 µM was determined as 58%.

`O=C(O)CO/N=C/c1ccc(C#CCOc2cc(Cl)cc(Cl)c2)cc1` [Compound 165, {[((1E)-{4-[3-(3,5-dichlorophenoxy)prop-1-ynyl]phenyl}methylidene)amino]oxy}acetic acid]: the inhibition at 100 µM amounted to 68%.

On to `O=C(O)CO/N=C/c1cccc(-c2ccc(OCc3ccc(Cl)c(Cl)c3)cc2)c1` [Compound 83, {[((1E)-{4′-[(3,4-dichlorobenzyl)oxy]-1,1′-biphenyl-3-yl}methylidene)amino]oxy}acetic acid], for which the inhibition at 100 µM came out at 57%.

`Cn1cc(/C=N/OCC(=O)O)c2cc(OCc3cccc(Br)c3)ccc21` [Compound 37, {[((1E)-{5-[(3-bromobenzyl)oxy]-1-methyl-1H-indol-3-yl}methylidene)amino]oxy}acetic acid]: the inhibition at 100 µM was 70%.

Regarding `O=C(O)CO/N=C/c1cccc(-c2cccc(OCc3cccc(Cl)c3)c2)c1` [Compound 63, {[((1E)-{3′-[(3-chlorobenzyl)oxy]-1,1′-biphenyl-3-yl}methylidene)amino]oxy}acetic acid], the inhibition at 100 µM stood at 91%. Turning to `Cc1cccc(COc2ccc(/C=N/OCC(=O)O)cc2OCc2cccc(C)c2)c1` [Compound 118, {[((1E)-{3,4-bis[(3-methylbenzyl)oxy]phenyl}methylidene)amino]oxy}acetic acid], the inhibition at 100 µM stood at 92%.
